# Measurements as given in patent publication US10604514B2, “6-(5-membered heteroaryl)isoquinolin-3-yl carboxamides and preparation and use thereof” (Samumed, LLC, priority 2017, dated 2020).
# pEC50: −log10 of the molar value. Read-outs that look alike come from different tables or passages of the source.
# Experiments:
# [1] = test system: SW480 colon carcinoma cells; experiment: Cell viability assay (CellTiter-Glo) in SW480 cells; assay type: cell-based, human; conditions: Homo sapiens; for pEC50: 96 h, cell viability, SW480 cells, four days, CellTiter-Glo; for inhibition at 10 µM: SW480, read-out: percent inhibition at 10 μM;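 on all read-outs here: SW480 cells stably carrying an Sp5-luciferase TCF/LEF reporter, luminescent ATP signal as viability measure, DMSO-treated cells as control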
# [2] = test system: LL29 cells (primary human fibroblasts derived from IPF patients), α-smooth muscle actin; experiment: Inhibition of fibrotic process: αSMA in TGF-β1-treated primary human fibroblasts from IPF patients (LL29 cells); assay type: cell-based; conditions: Homo sapiens, Fibroblast; for pEC50: 96 h, % αSMA-positive LL29 cells, TGF-β1 20 ng/mL, 4 days
# Method in brief: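 Read-out is the percentage of αSMA-positive cells by high-content imaging, excluding SYTOX green-positive dead/apoptotic cells, normalized to TGF-β1-only wells on the same plate. LL29 cells were exposed for 4 days at 37 °C to 20 ng/mL TGF-β1 plus 11-point, 2-fold compound dilutions in 0.1% DMSO.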
# IL-6 = IL-6 inhibition in LPS-stimulated human peripheral blood mononuclear cells (HTRF); assay type: cell-based; conditions: Homo sapiens, PBMC; for pEC50: IL-6, LPS-stimulated huPBMCs, HTRF; for inhibition at 10 µM: read-out: percent value in parentheses below EC50 >10
# Method in brief: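 EC50 from a 4-parameter fit of DMSO-normalized HTRF (665/620 nm) IL-6 signal, duplicates. Compound was added to fresh human PBMCs in 1% FBS RPMI for 2 h (top 10 μM, 3-fold, 0.25% DMSO) before 22 h stimulation with LPS at 50 ng/mL, 37 °C.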
# [3] = test system: Tau phosphorylation at Ser396 (pSer396), SH-SY5Y cells; experiment: Tau phosphorylation at Ser396 (pSer396) in SH-SY5Y cells, ELISA/western blot; assay type: cell-based, human; conditions: Homo sapiens; SH-SY5Y cells, overnight (16-18 h); read-out: pSer396 Tau EC50;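 further: cell lysates probed for reduced Tau pSer396 via ELISA (colorimetric) or western blot (chemiluminescence), both with one shared pSer396 antibody, EC50 for lowering phosphorylation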
# Protocol: Two days before treatment, cells were seeded onto 96 well plates at 5×10^4 cells/well.
# Wells were visually checked for cell death or change in morphology and supernatants were tested for cytotoxicity by measurement of lactate dehydrogenase release (LDH, CytoToxOne kit, Promega) if necessary.
# Cells were lysed with RIPA buffer complemented with phosphatase and protease inhibitors then lysates were spun down at 12,000 g for 10 min to remove any cellular debris. Lysates are then either directly tested for pSer396 by ELISA (Life Technology, Kit KHB7031) or loaded on NuPage Bis-Tris gels for western blot analysis. Colorimetric detection of ELISA signal is performed by Cytation3 plate reader (Biotek) and the chemiluminescence signal for HRP-linked antibodies used in western blotting is detected using a Carestream Image Station. The same pSer396 antibody is used for detection of pTau in both assays.
# DYRK1A kinase = DYRK1A kinase (Homo sapiens (Human), UniProt Q13627); experiment: DYRK1A kinase assay (Ser/Thr 18 peptide Z-lyte, FRET)
# [4] = test system: Wnt activity (Sp5-Luc reporter in SW480 colon carcinoma cells); experiment: Wnt activity screening assay (Sp5-Luc reporter gene assay); assay type: cell-based, human; conditions: Homo sapiens; for pEC50: Sp5-Luc reporter, SW480 cells, 36 to 48 hours; for inhibition at 10 µM: SW480, read-out: percent inhibition at 10 μM
# Method in brief: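 Compounds at 10 points (1:3 steps, top 10 μM, 0.1% DMSO final) were incubated 36 to 48 h at 37° C with stable Sp5-Luc SW480 reporter cells in 1% FBS medium. Luciferase luminescence was then read and expressed relative to DMSO-only cells. Four-parameter variable-slope fitting yielded EC50 values.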
# GSK3β kinase = GSK3β kinase (Homo sapiens (Human), UniProt P49841); experiment: GSK3β kinase assay (Ser/Thr 09 peptide Z-lyte, FRET); assay type: biochemical; conditions: method text calls the value IC50;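 further: Coumarin/fluorescein emission ratio converted to percent phosphorylation against unphosphorylated (0%) and phosphorylated (100%) controls, 1 h compound incubation at room temperature, 11-point threefold dilutions from 10 µM, run in duplicate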
# [5] = DYRK1A kinase, method text calls the value IC50
# Sequence of GSK3β kinase (P49841 whole entry): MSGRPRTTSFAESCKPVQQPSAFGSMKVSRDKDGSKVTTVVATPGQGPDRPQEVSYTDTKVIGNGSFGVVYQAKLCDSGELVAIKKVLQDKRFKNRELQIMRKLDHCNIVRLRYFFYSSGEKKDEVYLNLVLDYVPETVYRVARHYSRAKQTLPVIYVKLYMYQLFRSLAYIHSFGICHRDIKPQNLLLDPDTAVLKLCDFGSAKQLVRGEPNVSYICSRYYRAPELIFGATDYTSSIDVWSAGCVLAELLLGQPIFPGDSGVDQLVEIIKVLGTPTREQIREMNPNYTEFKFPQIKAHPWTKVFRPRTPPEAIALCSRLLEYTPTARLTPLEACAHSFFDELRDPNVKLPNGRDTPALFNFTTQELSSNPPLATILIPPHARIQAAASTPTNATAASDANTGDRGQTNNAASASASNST
Compound,pEC50 [1],pEC50 [2],pEC50 (IL-6),pEC50 [3],pEC50 (DYRK1A kinase; [5]),pEC50 [4],pEC50 (GSK3β kinase),inhibition at 10 µM (IL-6),inhibition at 10 µM [4],inhibition at 10 µM [1],pEC50 (DYRK1A kinase),inhibition at 10 µM ([2]; read-out: percent inhibition at 10 μM)
"Cn1cc(-c2cc(F)c3cnc(NC(=O)[C@H]4CC[C@H](N5CCOCC5)CC4)cc3c2)nn1 [Compound 56, trans-N-(8-Fluoro-6-(1-methyl-1H-1,2,3-triazol-4-yl)isoquinolin-3-yl)-4-morpholinocyclohexane-1-carboxamide]",5.19,6.55,5.47,7.04,8.40,5.27,8.05,–,–,–,–,–
"Cc1nnc(-c2cc(F)c3cnc(NC(=O)[C@H]4CC[C@H](N5CCOCC5)CC4)cc3c2)s1 [Compound 57, trans-N-(8-Fluoro-6-(5-methyl-1,3,4-thiadiazol-2-yl)isoquinolin-3-yl)-4-morpholinocyclohexane-1-carboxamide]",5.39,5.93,< 5.00,6.87,8.05,< 5.00,7.80,6.1%,40.1%,–,–,–
"Cc1cn2c(n1)CN(C(=O)Nc1cc3cc(-c4cnc(C)o4)ccc3cn1)CC2 [Compound 59, 2-Methyl-N-(6-(2-methyloxazol-5-yl)isoquinolin-3-yl)-5,6-dihydroimidazo [1,2-a]pyrazine-7(8H)-carboxamide]",6.85,6.53,6.89,7.46,8.52,5.39,7.82,–,–,–,–,–
"Cn1cc(-c2ccc3cnc(NC(=O)N4CCOCC4)cc3c2)nn1 [Compound 60, N-(6-(1-Methyl-1H-1,2,3-triazol-4-yl)isoquinolin-3-yl)morpholine-4-carboxamide]",5.39,5.31,< 5.00,5.96,8.15,6.17,7.14,5.7%,–,–,–,–
"Cc1nnc(-c2ccc3cnc(NC(=O)N4CCN(C)CC4)cc3c2)s1 [Compound 62, 4-Methyl-N-(6-(5-methyl-1,3,4-thiadiazol-2-yl)isoquinolin-3-yl)piperazine-1-carboxamide]",5.44,5.91,< 5.00,5.92,8.15,5.58,7.17,8.5%,–,–,–,–
"CN(C)C1CCN(C(=O)Nc2cc3cc(-c4cnn(C)c4)ccc3cn2)CC1 [Compound 63, 4-(Dimethylamino)-N-(6-(1-methyl-1H-pyrazol-4-yl)isoquinolin-3-yl) piperidine-1-carboxamide]",5.59,5.89,5.32,5.51,7.77,6.18,6.33,–,–,–,–,–
"Cn1cc(-c2ccc3cnc(NC(=O)N4CCOCC4)cc3c2)cn1 [Compound 64, N-(6-(1-Methyl-1H-pyrazol-4-yl)isoquinolin-3-yl)morpholine-4-carboxamide]",5.45,6.17,5.33,5.54,8.10,6.36,6.28,–,–,–,–,–
"CC(C)N1CCN(C(=O)Nc2cc3cc(-c4cnn(C)c4)ccc3cn2)CC1 [Compound 65, 4-isopropyl-N-(6-(1-methyl-1H-pyrazol-4-yl)isoquinolin-3-yl)piperazine-1-carboxamide]",< 5.00,5.63,< 5.00,< 5.00,7.15,6.14,5.55,4.8%,–,7.3%,–,–
"[2H]c1c(NC(=O)C2CCN(C)CC2)ncc2ccc(-c3cnn(C)c3)cc12 [Compound 66, 1-Methyl-N-(6-(1-methyl-1H-pyrazol-4-yl)isoquinolin-3-yl-4-d)piperidine-4-carboxamide]",5.91,6.80,6.00,6.77,–,5.93,7.28,–,–,–,8.52,–
"[2H]c1c(NC(=O)CN2CCOCC2)ncc2ccc(-c3cnn(C)c3)cc12 [Compound 68, N-(6-(1-Methyl-1H-pyrazol-4-yl)isoquinolin-3-yl-4-d)-2-morpholinoacetamide]",< 5.00,5.82,5.39,6.02,–,5.16,7.18,–,–,47.2%,8.15,–
"Cc1ncc(-c2ccc3cnc(NC(=O)[C@H]4CC[C@H](CN5CCOCC5)CC4)cc3c2)o1 [Compound 69, trans-N-(6-(2-methyloxazol-5-yl)isoquinolin-3-yl)-4-(morpholinomethyl)cyclohexane-1-carboxamide]",5.77,6.68,5.99,6.29,8.52,6.03,7.15,–,–,–,–,–
"Cc1ncc(-c2ccc3cnc(NC(=O)[C@H]4CC[C@H](CN5CCN(C)CC5)CC4)cc3c2)o1 [Compound 70, trans-N-(6-(2-Methyloxazol-5-yl)isoquinolin-3-yl)-4-((4-methylpiperazin-1-yl)methyl)cyclohexane-1-carboxamide]",5.76,6.91,6.02,6.51,8.70,5.96,7.14,–,–,–,–,–
"Cc1nnc(-c2ccc3cnc(NC(=O)N[C@H]4CCN(C)C[C@@H]4F)cc3c2)s1 [Compound 71, 1-((3S,4S)-3-Fluoro-1-methylpiperidin-4-yl)-3-(6-(5-methyl-1,3,4-thiadiazol-2-yl)isoquinolin-3-yl)urea]",< 5.00,5.33,5.03,6.60,8.22,< 5.00,7.85,–,45.6%,46.7%,–,–
"[2H]C1([2H])N(c2cc(C(=O)Nc3cc4cc(-c5cnc(C)n5C)ccc4cn3)ccn2)C([2H])([2H])C([2H])([2H])C([2H])([2H])C1([2H])[2H] [Compound 72, N-(6-(1,2-Dimethyl-1H-imidazol-5-yl)isoquinolin-3-yl)-2-(piperidin-1-yl-d10)isonicotinamide]",6.31,6.03,5.80,5.59,–,5.48,< 5.00,–,–,–,8.52,–
[2H]c1c([2H])c([2H])c(C(=O)Nc2cc3cc(-c4cncn4C)ccc3cn2)c(F)c1[2H] [Compound 80],5.80,5.57,5.12,< 5.00,–,6.13,5.59,–,–,–,8.52,–
[2H]c1c([2H])c([2H])c(C(=O)Nc2cc3cc(-c4cncn4C)ccc3cn2)c(Cl)c1[2H] [Compound 82],5.48,< 5.00,< 5.00,5.23,–,< 5.00,5.82,47.6%,29.6%,–,8.52,31.2%
"[2H]c1c([2H])c(C(=O)Nc2cc3cc(-c4cncn4C)ccc3cn2)c([2H])c([2H])c1Cl [Compound 83, 4-Chloro-N-(6-(1-methyl-1H-imidazol-5-yl)isoquinolin-3-yl)benzamide-2,3,5,6-d4]",6.52,6.32,5.95,< 5.00,–,< 5.00,6.06,–,29.7%,–,8.70,–
